Data taken from patent publication US20150272939A1, “Identification of Small Molecule Inhibitors of Jumonji AT-Rich Interactive Domain 1A (JARID1A) and 1B (JARID1B) Histone Demethylase” (Yale University, priority 2012, published 2015).
Where a name gives a salt, the structure may show the parent alone. Read-outs that look alike come from different tables or passages of the source.

Tests used:
[1] = AlphaScreen counterscreen against bio-H3K4me2 peptide in the absence of enzyme (artifact signal); settings: for Artifact Signal (percent): effect of the compound when incubated with bio-H3K4me2 peptide (counterscreen, no enzyme); for Artifact signal: effect of the compound when it is incubated with bio-H3K4me2 peptide: counterscreen, no enzyme;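 for all read-outs here: counterscreen run without enzyme against bio-H3K4me2 peptide to remove false positive hits from the JARID1 demethylase AlphaScreen screen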
[2] = biological target: T1, JARID1B (Homo sapiens, UniProt Q9UGL1); test: FLAG-JARID1B histone demethylase assay with AlphaScreen detection (HTS and dose response); format: biochemical; settings: for Assay − Artifact Signal (percent): assay signal minus artifact signal; for inhibition at 20 µM / Inhibitory effect (percent): high-throughput screen, compound 20 μM; for inhibition at 20 µM: read-out: Inhibitory effect (percent); for Assay Signal (percent) / Validation result of HTS active: effect of the compound in the JARID1B AlphaScreen demethylase assay: validation of HTS actives; for Assay Signal (percent): effect of compound in JARID1B AlphaScreen assay; for Validation result of HTS active: effect of the compound in the JARID1B AlphaScreen demethylase assay: total signal before subtraction of artifact signal;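 for Assay Signal (percent): compound tested at 20 µM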;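 for Assay − Artifact Signal (percent): compound tested at 20 µM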;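 for all read-outs here: FLAG-tagged JARID1B at 4 nM acting on a biotinylated H3K4me3 peptide, demethylation read by AlphaScreen luminescence, with hits checked against bio-H3K4me2 without enzyme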
T1 construct: The FLAG tagged full length JARID1B enzyme was expressed in Sf21 insect cells using FLAG-JARID1B baculoviruses; FLAG (N); made in house; host or cells: Sf21 insect cells (baculovirus)

[3] = standard demethylase conditions (10 μM α-KG, 50 μM Fe (II))
[4] = IDs marked *: additional hits under reaction condition with 1 mM α-KG

T1 sequence (Q9UGL1 whole entry): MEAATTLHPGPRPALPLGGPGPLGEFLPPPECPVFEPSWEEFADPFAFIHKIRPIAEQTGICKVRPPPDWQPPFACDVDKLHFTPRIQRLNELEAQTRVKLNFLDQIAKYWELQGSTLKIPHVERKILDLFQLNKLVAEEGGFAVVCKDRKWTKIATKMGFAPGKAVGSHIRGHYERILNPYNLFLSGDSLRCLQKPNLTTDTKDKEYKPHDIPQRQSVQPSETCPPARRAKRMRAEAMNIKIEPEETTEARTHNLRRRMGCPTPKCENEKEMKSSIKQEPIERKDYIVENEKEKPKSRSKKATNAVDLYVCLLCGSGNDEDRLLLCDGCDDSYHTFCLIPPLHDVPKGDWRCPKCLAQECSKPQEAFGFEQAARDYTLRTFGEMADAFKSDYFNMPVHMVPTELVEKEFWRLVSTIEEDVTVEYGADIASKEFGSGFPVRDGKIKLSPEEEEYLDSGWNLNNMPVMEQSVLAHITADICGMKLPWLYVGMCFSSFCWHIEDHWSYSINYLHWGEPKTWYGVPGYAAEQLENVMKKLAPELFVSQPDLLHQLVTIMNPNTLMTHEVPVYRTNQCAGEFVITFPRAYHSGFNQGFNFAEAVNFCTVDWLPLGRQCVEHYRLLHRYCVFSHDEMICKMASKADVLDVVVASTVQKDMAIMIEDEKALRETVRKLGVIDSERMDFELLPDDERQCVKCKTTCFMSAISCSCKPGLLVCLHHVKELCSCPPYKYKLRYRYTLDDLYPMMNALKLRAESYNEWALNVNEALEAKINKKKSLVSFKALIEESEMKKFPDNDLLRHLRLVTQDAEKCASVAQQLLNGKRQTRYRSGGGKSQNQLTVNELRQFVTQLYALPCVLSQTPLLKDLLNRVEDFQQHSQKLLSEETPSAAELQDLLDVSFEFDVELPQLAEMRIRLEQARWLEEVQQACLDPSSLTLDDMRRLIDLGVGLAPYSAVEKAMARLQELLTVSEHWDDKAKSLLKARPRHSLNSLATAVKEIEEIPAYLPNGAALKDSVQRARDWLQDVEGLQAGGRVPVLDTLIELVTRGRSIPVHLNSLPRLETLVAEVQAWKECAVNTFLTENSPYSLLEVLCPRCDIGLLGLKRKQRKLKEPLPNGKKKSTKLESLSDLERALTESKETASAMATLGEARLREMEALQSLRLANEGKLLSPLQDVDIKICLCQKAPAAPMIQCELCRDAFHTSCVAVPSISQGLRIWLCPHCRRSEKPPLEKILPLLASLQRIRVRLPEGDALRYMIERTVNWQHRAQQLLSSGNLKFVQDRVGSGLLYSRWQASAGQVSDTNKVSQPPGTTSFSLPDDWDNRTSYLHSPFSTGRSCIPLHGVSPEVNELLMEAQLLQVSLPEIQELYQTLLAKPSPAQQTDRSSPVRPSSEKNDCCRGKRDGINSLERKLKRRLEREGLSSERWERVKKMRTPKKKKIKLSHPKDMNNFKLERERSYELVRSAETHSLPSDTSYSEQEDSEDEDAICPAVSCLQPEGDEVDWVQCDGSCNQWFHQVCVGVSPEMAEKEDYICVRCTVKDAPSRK

Molecule | Artifact Signal (percent) [1] [%] | Assay − Artifact Signal (percent) [2] [%] | inhibition at 20 µM [2, 3] [%] | Assay Signal (percent) [2] [%] | Artifact signal: effect of the compound when it is incubated with bio-H3K4me2 peptide [1] | Validation result of HTS active: effect of the compound in the JARID1B AlphaScreen demethylase assay [2] | inhibition at 20 µM [2, 4] [%] | Inhibitory effect (percent) [2, 3] [%]
O=C(O)c1cc(O)c(O)c(O)c1 [YU155562, GALLIC ACID, reference compound] | 8.44 | 51.44 | 63.9 | 59.88 | – | – | – | –
CC1(C)C(=O)C2(CCCCC2)C(=O)OC1c1ccc(O)cc1 (stereo not drawn) [YU150447] | – | – | 34.3 | – | 0.80 | 4.56 | – | –
S=c1[nH]cnc2nc[nH]c12 [YU033892, MERCAPTOPURINE, reference compound] | −2.15 | 35.94 | – | 33.79 | – | – | 56 | –
c1ccc2c(NCc3ccncc3)cccc2c1 [YU145649] | 2.10 | 87.87 | 87.7 | 89.97 | – | – | – | –
O=c1cc(-c2ccccc2)oc2cc(O)c(O)c(O)c12 [YU155285, BAICALEIN, reference compound] | – | – | 65.2 | – | 1.01 | 0.59 | – | –
Oc1cc(O)c2c(c1)O[C@H](c1ccc(O)c(O)c1)[C@H](O)C2 [YU155618, EPICATECHIN, reference compound] | 6.96 | 57.78 | 66 | 64.74 | – | – | – | –
COCCCNCCOc1cc(C(C)C)ccc1C [YU147245] | 1.25 | 12.07 | 30.9 | 13.31 | – | – | – | –
CARMINIC ACID [YU155214, reference compound] | 24.32 | 54.26 | – | 78.58 | – | – | – | 65.23
O=S(=O)(NN1CCOCC1)c1ccc(Cl)cc1 [YU148050] | 3.44 | 17.03 | 36.1 | 20.47 | – | – | – | –
Cc1cccc(NC(c2cccnc2)c2ccc3cccnc3c2O)c1 (stereo not drawn) [YU172169] | 61.44 | 11.78 | 72.7 | 73.22 | – | – | – | –
N#CC(=Cc1ccncc1)c1nc2cc(C(F)(F)F)ccc2s1 (single isomer, unassigned) [YU153803] | −5.27 | 99.03 | 90.8 | 93.75 | – | – | – | –
Cc1ccc(C(C#N)=Cc2ccc(N3CCOCC3)o2)cc1 (single isomer, unassigned) [YU149607] | 2.50 | 37.94 | 43.1 | 40.44 | – | – | – | –
Cc1ccc(C(=O)Nc2nnc(-c3ccncc3)s2)o1 [YU148889] | 6.66 | 9.49 | 44.6 | 16.16 | – | – | – | –
N#CC(=Cc1ccc(O)c(O)c1)C(N)=O (single isomer, unassigned) [YU154833, TYRPHOSTIN 46, reference compound] | 4.32 | 46.11 | 76.8 | 50.42 | – | – | – | –
COC(=O)c1cccc(OCC(O)Cn2ccnc2)c1 (stereo not drawn) [YU148087] | 7.00 | 8.48 | 51.4 | 15.48 | – | – | – | –
Cl.Cn1cccc1CNCc1ccncc1 [YU145853] | 8.99 | 57.65 | 76.6 | 66.64 | – | – | – | –
O=Cc1ccc(-c2ccc(S(=O)(=O)O)cc2)o1 [YU146454] | −4.14 | 68.83 | 42.3 | 64.68 | – | – | – | –
O=C(NCCc1ccc(F)cc1)C(Cl)(Cl)Cl [YU148680] | – | – | 63.9 | – | −10.90 | −2.95 | – | –
Cc1ccc(NC(c2cccnc2)c2ccc3cccnc3c2O)cc1C (stereo not drawn) [YU172173] | – | – | 40 | – | 37.31 | 44.79 | – | –

Molecule | Artifact Signal (percent) [1] [%] | Assay − Artifact Signal (percent) [2] [%] | inhibition at 20 µM [2, 3] [%] | Assay Signal (percent) [2] [%] | Artifact signal: effect of the compound when it is incubated with bio-H3K4me2 peptide [1] | Validation result of HTS active: effect of the compound in the JARID1B AlphaScreen demethylase assay [2] | inhibition at 20 µM [2, 4] [%] | Inhibitory effect (percent) [2, 3] [%]
O=c1c2cc(O)c(O)cc2oc2cc(O)c([C@@H]3O[C@H](CO)[C@@H](O)[C@H](O)[C@H]3O)c(O)c12 [YU153356, MANGIFERIN, reference compound] | 76.59 | 21.62 | – | 98.21 | – | – | – | –
O=c1c(O)cc([C@H]2Oc3cc(O)cc(O)c3C[C@H]2O)cc2c([C@H]3Oc4cc(O)cc(O)c4C[C@H]3O)cc(O)c(O)c12 [YU155003, THEAFLAVIN, reference compound] | 47.32 | 13.49 | 60.4 | 60.81 | – | – | – | –
BACITRACIN [YU033699, reference compound] | – | – | – | – | −1.65 | 6.01 | – | 74.07
CCOc1cccc(CNc2ccc(N3CCCC3)cc2)c1 [YU149839] | 18.44 | 13.21 | 47.5 | 31.65 | – | – | – | –
CN(C)CCn1c2c(c3ccccc31)CCCn1cnnc1-2.Cl [YU153907] | – | – | 41.2 | – | −2.05 | 1.57 | – | –
COC(=O)NC1(C(F)(F)F)C(=O)NC(C)=C1C(=O)OC (stereo not drawn) [YU149831] | 2.14 | 11.45 | 34 | 13.59 | – | – | – | –
C[C@@H]1O[C@@H](OC[C@H]2OC(OC3=C(c4ccc(O)c(O)c4)Oc4cc(O)cc(O)c4C3O)[C@H](O)[C@@H](O)[C@@H]2O)[C@H](O)[C@H](O)[C@H]1O (stereo partly drawn) [YU033654, RUTOSIDE (rutin), reference compound] | 5.37 | 52.71 | 65.8 | 58.08 | – | – | – | –
Cc1cccc(-n2c(=O)c(O)nc3cc([N+](=O)[O-])ccc32)c1 [YU149941] | – | – | 51.1 | – | −16.01 | −12.32 | – | –
COc1ccccc1OCC(O)COC(N)=O (stereo not drawn) [YU033898, METHOCARBAMOL, reference compound] | – | – | 93.2 | – | 18.66 | 0.74 | – | –
CCC(=O)c1c(O)n(C)c(=O)n(C)c1=O [YU145029] | 0.11 | 34.42 | 61.6 | 34.53 | – | – | – | –
Cc1ccc(CNn2cnnc2S)cc1 [YU145266] | 1.04 | 44.07 | 45.7 | 45.11 | – | – | – | –
CC(C)=CCc1c2c(c3occ(-c4ccc(O)c(O)c4)c(=O)c3c1O)C=CC(C)(C)O2 [YU033628, POMIFERIN, reference compound] | – | – | – | – | 13.55 | 6.60 | – | 68.25
CCCCC(CC)CNC(=N)NC(=N)NCCCCCCNC(=N)NC(=N)NCC(CC)CCCC (stereo not drawn) [YU034347, ALEXIDINE HYDROCHLORIDE, reference compound] | 5.60 | 66.40 | 80.6 | 72.00 | – | – | – | –
O=C(O)CCCC[C@@H]1SC[C@@H]2NC(=O)N[C@@H]21 [YU034331, BIOTIN, reference compound] | – | – | 104 | – | 99.61 | 104.67 | – | –
COC(=O)C1=C(C)NC(=O)C1(Nc1nccs1)C(F)(F)F (stereo not drawn) [YU152562] | – | – | 39.4 | – | −15.40 | −8.43 | – | –
O=C(O[C@@H]1Cc2c(O)cc(O)cc2O[C@@H]1c1cc(O)c(O)c(O)c1-c1c([C@H]2Oc3cc(O)cc(O)c3C[C@H]2OC(=O)c2cc(O)c(O)c(O)c2)cc(O)c(O)c1O)c1cc(O)c(O)c(O)c1 (stereo in doubt) [YU155084, 2,2-BISEPIGALLO- CATECHIN DIGALLATE, reference compound] | – | – | 102 | – | 91.60 | 98.89 | – | –
CN(C)[C@@H]1C(O)=C(C(N)=O)C(=O)[C@@]2(O)C(O)=C3C(=O)c4c(O)ccc(Cl)c4[C@@](C)(O)[C@H]3C[C@@H]12 [YU033743, AUREOMYCIN, reference compound] | 0.43 | 27.81 | – | 28.24 | – | – | 90 | –
Oc1ccc2c(c1)OCC1(O)Cc3cc(O)c(O)cc3C21 (stereo not drawn) [YU154998, BRAZILIN, reference compound] | −0.48 | 15.98 | 70.3 | 15.51 | – | – | – | –
